“Also recorded” adds a separate entry of the source. Like-named read-outs stand apart in the source and are kept apart here.
Tests used:
[1] = system: CpG ODN-generated IL-6 production by human PBMC; assay: Blockade of CpG ODN-generated IL-6 production by human PBMC, ELISA (Example 8, Table 19); type: cell-based; conditions: CpG-ODN 2006, 16 h
Source text: Alternatively, TLR9 ligand antagonism in human peripheral blood mononuclear cells (PBMC) was monitored. Peripheral blood buffy coat preparations from healthy male and female human donors were obtained from the Blood Bank of the University of Düsseldorf (Germany) and from these, PBMC were purified by centrifugation over Ficoll-Hypaque (Sigma). The purified PBMC were resuspended in RPMI 1640 culture medium supplemented with 5% (v/v) heat-inactivated human AB serum (Bio Whittaker, Belgium) or 10% (v/v) heat-inactivated fetal calf serum (FCS), 1.5 mM L-glutamine, 100 U/ml penicillin and 100 μg/ml streptomycin (all from Sigma). Fresh PBMC at a concentration of 3×10^6/ml to 5×10^6/ml were added to 96-well round-bottomed plates (150 μl/well). After cell plating, antagonist was added at varying concentrations starting at 50 μM with a 1/5 to 1/6 dilution for 7 steps. The cells were then stimulated with the TLR9 agonist, CpG-ODN 2006, and cultured for 16 h in a humidified incubator at 37° C. Culture supernatants were collected and, if not used immediately, frozen at −20° C. until required. Interleukin 6 (IL-6) in the supernatants was quantitatively assessed using commercially available ELISA Kits (IL6, Diaclone, USA). Sigmoidal antagonism curves were generated and IC50 calculated. Results shown in Table 19 under the heading IL-6 are the IC50 dose (μM) for blockade of CpG ODN-generated IL-6 production by human PBMC.

hTLR9 = target: T1, hTLR9 (Homo sapiens, UniProt Q9NR96); assay: hTLR9 antagonism IC50, hTLR9-NFkB-293 cells, luciferase readout, CpG-ODN 2006 (Examples 8 and 18, Tables 19 and 20); type: cell-based; conditions: hTLR9-NFkB-293 cells, EC50 dose of CpG-ODN 2006, 16 h; Table 19 quinazolines; read-out: hTLR9 (IC50 dose for blockade of a CpG ODN-generated signal)
T1 construct: expressed in transfected cells
T1 sequence (Q9NR96 26-1032): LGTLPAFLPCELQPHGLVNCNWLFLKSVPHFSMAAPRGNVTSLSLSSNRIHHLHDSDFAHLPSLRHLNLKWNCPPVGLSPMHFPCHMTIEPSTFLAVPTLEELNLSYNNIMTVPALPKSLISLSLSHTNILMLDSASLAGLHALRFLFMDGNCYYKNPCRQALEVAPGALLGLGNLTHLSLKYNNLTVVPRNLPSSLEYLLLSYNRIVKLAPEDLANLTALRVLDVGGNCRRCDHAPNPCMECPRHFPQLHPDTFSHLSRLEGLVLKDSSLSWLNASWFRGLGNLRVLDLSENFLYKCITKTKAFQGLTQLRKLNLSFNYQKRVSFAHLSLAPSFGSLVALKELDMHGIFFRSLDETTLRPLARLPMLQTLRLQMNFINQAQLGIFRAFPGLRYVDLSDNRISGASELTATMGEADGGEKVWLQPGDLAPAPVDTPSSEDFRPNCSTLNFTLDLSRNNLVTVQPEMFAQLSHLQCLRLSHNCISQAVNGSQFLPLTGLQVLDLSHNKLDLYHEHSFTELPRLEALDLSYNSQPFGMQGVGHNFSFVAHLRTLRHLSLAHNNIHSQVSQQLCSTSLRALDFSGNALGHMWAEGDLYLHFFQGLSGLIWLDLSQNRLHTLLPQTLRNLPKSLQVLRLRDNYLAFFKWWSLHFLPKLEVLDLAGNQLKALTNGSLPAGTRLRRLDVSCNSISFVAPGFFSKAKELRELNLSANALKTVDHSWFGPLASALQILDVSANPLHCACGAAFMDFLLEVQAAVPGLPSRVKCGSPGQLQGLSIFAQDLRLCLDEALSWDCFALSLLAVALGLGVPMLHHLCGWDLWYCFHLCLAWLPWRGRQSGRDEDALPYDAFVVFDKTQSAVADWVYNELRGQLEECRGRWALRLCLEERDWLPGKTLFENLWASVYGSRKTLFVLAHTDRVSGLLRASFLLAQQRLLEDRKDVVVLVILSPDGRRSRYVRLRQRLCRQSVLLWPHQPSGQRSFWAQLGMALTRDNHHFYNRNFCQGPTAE
Description: (§1) hTLR9-NFkB-293 cells were counted and seeded at 1.5×10^4 cells per well in 96-well cell culture plates one day before assaying and cultured at 37° C./5% CO2, as described in Example 7. The day of the assay, antagonist was added at varying concentrations starting at 50 μM with a 1/5 to 1/6 dilution for 7 steps. The cells were then stimulated with the EC50 dose of the TLR9 agonist, CpG-ODN 2006, and cultured for 16 h in a humidified incubator at 37° C. The culture supernatant was removed and the cells were treated with lysis buffer and stored at −80° C. before measuring luciferase activity as described in Example 7. […] Results shown in Table 19 under the heading hTLR9 are the IC50 dose (μM) for blockade of a CpG ODN-generated signal in hTLR9-NFkB-293 cells.
as §1, with “20” for “19”

[2] = system: IP-10 induction by CpG ODN 2006; assay: In vivo inhibition of IP-10 induction by CpG ODN 2006 (Example 10); set-up: species or system BALB/c mice; conditions: 40 μg intraperitoneal 1 h before 100 μg CpG ODN 2006 s.c.; bled at 3 hr
Description: FIG. 4 is a bar graph depicting in vivo inhibition of IP-10 induction (pg/ml) by CpG ODN 2006 following pretreatment with PBS control or a quinoline compound (203-43) or various indicated quinazoline compounds (203-34, 203-49, or 203-51). N=5 for each group.
(§2) BALB/c mice (n=5) were pretreated with intraperitoneal injection of 40 μg quinoline 203-43, quinazoline 203-34, 203-49, or 203-51, or with 100 μl of sterile phosphate buffered saline (PBS) control. One hour after the injection, mice were injected subcutaneously with 100 μg CpG ODN 2006. Animals were bled at 3 hr post injection with CpG ODN 2006 and IP-10 levels in plasma measured by IP-10-specific enzyme-linked immunosorbent assay (ELISA).

[3] = In vivo toxicity in mice: body weight, mortality, white blood cell differential (Example 9); set-up: species or system BALB/c mice
Source text: FIG. 2 is a pair of graphs depicting results of an in vivo toxicity assay in mice for specific quinoline and quinazoline compounds. […] N=3 for each treatment group.
FIG. 3 is a bar graph depicting total and differential white blood cell counts in mice measured five days after administration of a single intraperitoneal dose of specific quinoline and quinazoline compounds. N=3 for each treatment group.
Female BALB/c mice (n=3 per group) were given a single intraperitoneal bolus injection of CMZ 203-43 (1.0 or 4.0 mg), CMZ 203-34 (1.0 or 4.0 mg) or CMZ 203-49 (1.0 or 4.0 mg) in a volume of 0.2 ml. Compound CMZ 203-43 has the structural formula
Other mice received 10% dimethyl sulfoxide (DMSO) in an identical manner. Animals were weighed immediately prior to injection (day 1) and then daily until day 5. On day 5, blood was collected by cardiac puncture and analyzed for hematological and biochemical parameters. Animals were monitored daily for morbidity and mortality.
All of the mice receiving 4.0 mg CMZ 203-43 group were dead on day 4.
Data for mice treated with 4.0 mg CMZ 203-43 was not available because all these mice were dead before day 5.

[4] = system: TNF-α induction by CpG ODN 2006; assay: In vivo inhibition of TNF-α induction by CpG ODN 2006 (Example 11); set-up: species or system BALB/c mice; conditions: 40 μg intraperitoneal 1 h before 100 μg CpG ODN 2006 s.c.; bled at 1 hr
Description: FIG. 5 is a bar graph depicting in vivo inhibition of TNF-α induction (pg/ml) by CpG ODN 2006 following pretreatment with PBS control or a quinoline compound (203-43) or various indicated quinazoline compounds (203-34, 203-49, or 203-51). N=5 for each group.
as §2
Groups of BALB/c mice treated as in Example 10 were also analyzed for TNF-α. Animals were bled at 1 hr post injection with CpG ODN 2006 and TNF-α levels in plasma measured by TNF-α-specific ELISA.

Plasmodium falciparum = conditions: treatment of malaria; Aderounmu 1984; cited from earlier work
[5] = read-out: IC50 by Macfarlane's assay; cited from earlier work
[6] = Macfarlane's assay of chloroquines (IC50); conditions: from the Macfarlane IC50 values
Source text: It turns out that chloroquine, hydroxychloroquine, mono de-ethylchloroquine, and bis de-ethylchloroquine have been examined by Macfarlane.

[7] = cited from earlier work
WEHI 231 B-cells = conditions: anti-surface IgM, U.S. Pat. No. 6,479,504, read-out: EC50, half-maximal inhibition of CpG-ODN effect on thymidine uptake; cited from earlier work
[8] = 4.0 mg single intraperitoneal injection

| SMILES | IC50 [1] [nM] | IC50 (hTLR9) [nM] | IC50 [5] [nM] | further results |
| --- | --- | --- | --- | --- |
| CN(C)CCNC1NC(c2ccc(N3CCN(C)CC3)cc2)=Nc2ccccc21 (stereo not shown) [CMZ 203-34(201), N,N-dimethyl-N′-{2-[4-(4-methyl-piperazin-1-yl)-phenyl]-3,4-dihydro-quinazoline-4-yl}-ethane-1,2,-diamine] | 50 | 3 | – | – |
| CN(C)CCNc1cc(-c2ccc(N3CCN(C)CC3)cc2)nc2ccccc12 [CMZ 203-43] | – | – | – | serum IP-10 concentration versus PBS control [2]: significantly reduced; body weight change ([3]; 1.0 mg single intraperitoneal injection, 5 days): significant weight loss; white blood cell differential ([3]; 1.0 mg single intraperitoneal injection, day 5): significant neutrophilia; morbidity and mortality [3, 8]: sick and had to be sacrificed on day 3; also recorded: dead on day 4; necropsy finding [3, 8]: bowel obstruction; serum TNF-α concentration versus PBS control [4]: significantly reduced |
| CN(C)CCNc1nc(-c2ccccc2)nc2ccccc12 [CMZ 203-44, N,N-Dimethyl-N′-(2-phenyl-quinazolin-4-yl)-ethane-1,2-diamine] | 4000 | 2400 | – | – |
| CN(C)CCOc1nc(-c2ccc(N3CCN(C)CC3)cc2)nc2ccccc12 [CMZ 203-49(213), Dimethyl-(2-{2-[4-(4-methyl-piperazin-1-yl)-phenyl]-quinazolin-4-yloxy}-ethyl)-amine] | 600 | 2400 | – | – |
| CN(C)CCNc1nc(-c2ccc(-c3ccccc3)cc2)nc2ccccc12 [CMZ 203-51, N′-(2-Biphenyl-4-yl-quinazolin-4-yl)-N,N-dimethyl-ethane-1,2-diamine] | 6600 | 5200 | – | – |
| COc1cc2nc(N3CCN(C)CC3)nc(NCCN(C)C)c2cc1OC [CMZ 203-76, N′-[6,7-Dimethoxy-2-(4-methyl-piperazin-1-yl)-quinazolin-4-yl]-N,N-dimethyl-ethane-1,2-diamine] | 221 | 3 | – | – |
| COc1cc2nc(N3CCN(c4ccccc4)CC3)nc(NCCN(C)C)c2cc1OC [CMZ 203-78, N′-[6,7-Dimethoxy-2-(4-phenyl-piperazin-1-yl)-quinazolin-4-yl]-N,N-dimethyl-ethane-1,2-diamine] | 8 | 3 | – | – |
| CC(CCCN)Nc1ccnc2cc(Cl)ccc12 (stereo not shown) [bis de-ethylchloroquine] | – | – | 1860 | potency against Plasmodium falciparum (Plasmodium falciparum): about half as active; reduction of potency relative to chloroquine [6]: about 18 fold |
| CCN(CC)CCCC(C)Nc1ccnc2cc(Cl)ccc12 (stereo not shown) [chloroquine] | – | – | 110 | half life in humans ([7]; human, in vivo): 18 days; potency against Plasmodium falciparum (Plasmodium falciparum): about equal |
| CCN(CCO)CCCC(C)Nc1ccnc2cc(Cl)ccc12 (stereo not shown) [hydroxychloroquine] | – | – | 410 | – |
| CCNCCCC(C)Nc1ccnc2cc(Cl)ccc12 (stereo not shown) [mono de-ethylchloroquine] | – | – | 708 | half life relative to that of chloroquine ([7]; humans): 1.5 times; half life in humans ([7]; humans, de Vries 1994): 27 days; potency against Plasmodium falciparum (Plasmodium falciparum): about equal; reduction of potency relative to chloroquine [6]: about 7 fold |
| CCN(CC)CCCC(C)Nc1c2ccc(Cl)cc2nc2ccc(OC)cc12 (stereo not shown) [quinacrine] | – | – | – | EC50 (WEHI 231 B-cells): ~8 nM |

— patent US7410975B2, “Small molecule toll-like receptor (TLR) antagonists” (Coley Pharmaceutical Group, Inc., priority 2003, dated 2008)
